These results are taken from publication PMC6028453, “BrlR from Pseudomonas aeruginosa is a receptor for both cyclic di-GMP and pyocyanin” (Nature Communications, 2018).

For experiment [1], the system named is brlR promoter activity (C2E mut2). Description: β-galactosidase assay, C2E mut2. In kind it is cell-based, Pseudomonas aeruginosa. Here is the method: We also performed β-galactosidase activity assays using a PbrlR-brlR-lacZ reporter construct to investigate the transcriptional function of BrlR mutants in vivo. […] To confirm the effect of c-di-GMP in P. aeruginosa, we carried out real-time quantitative PCR analyses. Following a previous report, we introduced the diguanylate cyclase PA4843 into a WT P. aeruginosa strain carrying either pHERD20T-empty or pHERD20T-PA4843. The transcription level of brlR was analyzed using the brlR 5 F and brlR 3 R primers (Supplementary Table 1). The transcriptional level of brlR in pHERD20T-PA4843 strain is 4.5 ± 1.3-fold higher than that in the pHERD20T-empty strain (Fig. 4h).
β-galactosidase activity was assayed with P. aeruginosa PA01 ΔbrlR strain carrying plasmid pME6522-borne transcriptional lacZ fusions. P. aeruginosa carrying the empty vector was used as the […]. The reporter plasmids are derivatives of the pME6522 plasmid in which multiple cloning sites were inserted before the LacZ with the promoter and coding regions of brlR with diverse mutations. These reporter plasmids were transformed into the reporter strain. Overnight cultures were diluted 20-fold with LB medium supplemented with appropriate antibiotics. […]

A further experiment concerns the target T1, C2E mut1 DNA binding (Pseudomonas aeruginosa, UniProt Q9HUT5, D35A/R31A/Y270A/Y40A).
T1 construct: His6-SUMO (N, cleaved yes); made in house; host or cells: E. coli BL21 DE3
As to the kind of experiment: EMSA, C2E mut1 with PbrlR DNA. In kind it is biochemical. Here is the method:
(§1) A 6-carboxy-fluorescein (FAM)-labeled 36-bp brlR promoter DNA (PbrlR) or 80-bp mexA/mexE promoter DNA (PmexA/PmexE) probes (~0.375 pmol), BrlR protein and varying amounts of inducers were incubated in binding buffer (10 mM Tris HCl [pH 7.4], 50 mM KCl, 1 mM DTT, […] and 5 ng/mL poly [dI-dC]) for 60 min at 25 °C. Finally, glycerol was added to a concentration of 6.5%. The samples were subjected to a 5% polyacrylamide gel electrophoresis and run in 0.5 × Tris-borate-EDTA buffer at 80 V for 1 h at room temperature. Imaging and data analyses were performed using a Typhoon Scanner (GE Healthcare) and Imagequant software. The probes used are listed in Supplementary Table 1.
For orientation: In EMSA bound probe runs differently from free probe, usually more slowly.

The target in another experiment is T2, BrlR mutant R67A (Pseudomonas aeruginosa, UniProt Q9HUT5, R67A).
T2 construct: His6-SUMO (N, cleaved yes); made in house; host or cells: E. coli BL21 DE3
As to the kind of experiment: FP binding assay, BrlR R67A. The procedure:
F-c-di-GMP and F-c-di-AMP both contain a fluorophore at one of the 2′-ribose hydroxyls of c-di-GMP and c-di-AMP, respectively (Fig. 2f). To measure the binding of c-di-GMP and c-di-AMP to BrlR variants, 1 nM F-c-di-GMP or F-c-di-AMP was incubated with increasing amounts of indicated BrlR WT, BrlR mutation, or BrlR-C in reaction buffer (25 mM HEPES, 100 mM NaCl, pH 7.5) at 25 °C for 20 min. 1 nM fluorescein was incubated with BrlR WT in the same reaction buffer at 25 °C. FP measurements were conducted on a Synergy 4 Microplate Reader (BioTek) at 25 °C. All experiments were performed in triplicate. The curves were fitted to deduce binding affinities by GraphPad Prism 5.
BrlR–c-di-GMPs interactions in two separate c-di-GMP binding sites
In the first binding site, c-di-GMP is half accommodated by the antiparallel β-sheet and two residues (M1 and D35). In detail, the backbone amide protons of the first M1 residue form a hydrogen bond (H-bond) with the phosphate oxygen atom of c-di-GMP, and the side chain of R31 forms two H-bonds with the Gua1 base. The residue D35 also forms an H-bond with the Gua1 base. The aromatic ring of Y40 interacts with the Gua1 base through a hydrophobic π-π interaction. In addition, the hydroxyl group of the Y270 side chain from another subunit interacts with the phosphate 2 of c-di-GMP via an H-bond (Fig. 2d). […]

Another experiment deals with T3, BrlR (Pseudomonas aeruginosa, UniProt Q9HUT5).
T3 construct: His6-SUMO (N, cleaved yes); made in house; host or cells: E. coli BL21 DE3
Description: FP competition experiment, wild-type BrlR. The following applies: 320 μM BrlR, 1 nM F-c-di-GMP, 760 μM c-di-GMP added. In kind it is binding. The procedure: Supplementary Figure 4: Fluorescence polarization competition experiment. Wt BrlR was added to a final concentration of 320 μM in the reaction buffer containing 1 nM F-c-di-GMP, and the binding […]
curve was recorded. […] After the addition of
760 μM c-di-GMP (indicated with an arrow in the figure), an apparent competition with the fluoresceinated c-di-GMP could be observed by the remarkable decrease in millipolarization units.
(1 picture or pasted object on this page, not shown here)

The target of a further experiment is T4, BrlR-DNA binding (PbrlR) (Pseudomonas aeruginosa, UniProt Q9HUT5).
T4 construct: His6-SUMO (N, cleaved yes); made in house; host or cells: E. coli BL21 DE3
As to the kind of experiment: EMSA, wild-type BrlR with PbrlR DNA. The format is biochemical. Here is the method: as §1

The target in another experiment is T5, BrlR R67A DNA binding (Pseudomonas aeruginosa, UniProt Q9HUT5, R67A).
T5 construct: His6-SUMO (N, cleaved yes); made in house; host or cells: E. coli BL21 DE3
As to the kind of experiment: EMSA, BrlR R67A. In kind it is biochemical. The procedure: as §1

T4 sequence (Q9HUT5 whole entry): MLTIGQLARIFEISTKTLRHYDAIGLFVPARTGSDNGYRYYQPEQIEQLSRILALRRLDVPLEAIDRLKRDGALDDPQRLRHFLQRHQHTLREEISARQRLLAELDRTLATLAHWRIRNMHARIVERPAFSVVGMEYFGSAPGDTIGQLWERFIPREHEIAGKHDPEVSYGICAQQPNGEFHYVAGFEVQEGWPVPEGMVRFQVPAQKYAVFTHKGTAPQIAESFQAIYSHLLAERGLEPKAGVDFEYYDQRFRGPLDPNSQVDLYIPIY
T1 sequence (Q9HUT5 whole entry R31A/D35A/Y40A/Y270A): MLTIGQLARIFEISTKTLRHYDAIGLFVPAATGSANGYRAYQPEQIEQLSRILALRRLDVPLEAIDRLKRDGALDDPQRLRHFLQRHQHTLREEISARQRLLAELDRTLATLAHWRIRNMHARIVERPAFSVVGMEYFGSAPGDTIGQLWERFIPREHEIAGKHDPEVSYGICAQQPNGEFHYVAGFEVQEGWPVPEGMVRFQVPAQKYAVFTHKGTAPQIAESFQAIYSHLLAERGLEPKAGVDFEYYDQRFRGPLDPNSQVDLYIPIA
T2 sequence (Q9HUT5 whole entry R67A): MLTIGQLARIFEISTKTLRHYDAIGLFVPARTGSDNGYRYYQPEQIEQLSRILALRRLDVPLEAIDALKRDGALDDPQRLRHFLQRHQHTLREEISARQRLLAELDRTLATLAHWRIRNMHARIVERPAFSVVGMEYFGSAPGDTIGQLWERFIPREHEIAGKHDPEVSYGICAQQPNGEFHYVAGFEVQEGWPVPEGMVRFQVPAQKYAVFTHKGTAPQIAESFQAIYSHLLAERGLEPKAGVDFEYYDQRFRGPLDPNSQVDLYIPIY
T5 sequence (Q9HUT5 whole entry R67A): as above
T3 sequence (Q9HUT5 whole entry): as the sequence (Q9HUT5 whole entry) above

In general, Kd refers to the constant that tells how readily two partners part at equilibrium. Turning to `Nc1nc2c(ncn2[C@@H]2O[C@@H]3COP(=O)(O)O[C@H]4[C@@H](O)[C@H](n5cnc6c(=O)[nH]c(N)nc65)O[C@@H]4COP(=O)(O)O[C@H]3[C@H]2O)c(=O)[nH]1` [c-di-GMP, cyclic diguanylate monophosphate], the “increase at high vs low c-di-GMP concentration (β-galactosidase activity)” value in experiment [1] was found to be 2.2 fold. The “BrlR-DNA complex in the presence vs absence of c-di-GMP” value amounted to 1.5 fold at C2E mut1 DNA binding and 5.5 fold at BrlR-DNA binding (PbrlR) (wild-type BrlR, band densitometry). For the same compound, the Kd at BrlR mutant R67A was 16.4 ± 1 µM. Moreover, the “competition with F-c-di-GMP binding to BrlR” value at BrlR is “outcompeted specifically”. In addition, the “effect of c-di-GMP and pyocyanin together on BrlR-DNA binding” value at BrlR-DNA binding (PbrlR) (PbrlR, c-di-GMP, pyocyanin, and both) is “cooperatively enhance”. Besides, at BrlR-DNA binding (PbrlR) (wild-type BrlR, increasing concentrations of compound), the “effect on BrlR-PbrlR DNA binding (in words)” value is listed as “significantly promoted”. In addition, the “DNA bound in the presence vs absence of c-di-GMP” value on BrlR R67A DNA binding was ~ 5.2 fold.
